Reference: PubChem BioAssay AID330 (DTP/NCI, 2004)
Values joined by “and” are separate entries in the source; they are usually repeats but may differ in a detail not shown here. Equal entries are not always repeated. Inconclusive results and toxic doses are left out. Peptide text beside a SMILES is read from it. * marks the point of attachment. Cbz = O=C(OCc1ccccc1)*

Test system: P388 leukemia ip, CD2F1 mice, survival T/C
Assay: NCI In Vivo Anticancer Drug Screen. Data for tumor model P388 Leukemia (intraperitoneal) in CD2F1 (CDF1) mice
Conditions: endpoint: median survival time, higher = longer survival
Outline: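 Mice carrying the transplanted tumor received test compound or vehicle. Survival was recorded in each group, and the value is the treated-group measurement divided by that of the vehicle-treated control group.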

[1] = dose: 60.0 mg/kg/injection, schedule: Q01DX005 (ip), vehicle: Klucel (hydroxypropylcellulose) (HPC)
[2] = dose: 60.0 mg/kg/injection, schedule: Q01DX005 (ip), vehicle: saline with Tween-80
[3] = dose: 120.0 mg/kg/injection, schedule: Q01DX005 (ip), vehicle: Klucel (hydroxypropylcellulose) (HPC)
[4] = dose: 120.0 mg/kg/injection, schedule: Q01DX005 (ip), vehicle: saline with Tween-80
[5] = dose: 240.0 mg/kg/injection, schedule: Q01DX005 (ip), vehicle: Klucel (hydroxypropylcellulose) (HPC)
[6] = dose: 100.0 mg/kg/injection, schedule: Q04DX002 (ip), vehicle: saline with Tween-80
[7] = dose: 12.5 mg/kg/injection, schedule: Q01DX009 (ip), vehicle: saline
[8] = dose: 25.0 mg/kg/injection, schedule: Q01DX009 (ip), vehicle: saline
[9] = dose: 50.0 mg/kg/injection, schedule: Q01DX005 (ip), vehicle: saline with Tween-80
[10] = dose: 100.0 mg/kg/injection, schedule: Q01DX005 (ip), vehicle: saline with Tween-80
[11] = dose: 200.0 mg/kg/injection, schedule: Q01DX005 (ip), vehicle: saline with Tween-80
[12] = dose: 6.25 mg/kg/injection, schedule: Q01DX005 (ip), vehicle: saline with Tween-80
[13] = dose: 12.5 mg/kg/injection, schedule: Q01DX005 (ip), vehicle: saline with Tween-80
[14] = dose: 25.0 mg/kg/injection, schedule: Q01DX005 (ip), vehicle: saline with Tween-80
[15] = dose: 240.0 mg/kg/injection, schedule: Q01DX005 (ip), vehicle: saline with Tween-80
[16] = dose: 100.0 mg/kg/injection, schedule: Q01DX009 (ip), vehicle: saline with Tween-80
[17] = dose: 200.0 mg/kg/injection, schedule: Q01DX009 (ip), vehicle: saline with Tween-80

COC(=O)c1c(O)c2c(c3c1OC(C)(C)CC3)OC(C)(C)CC2 was tested, and the T/C [1] was 93 % of control, the T/C [2] was 90 % of control and the T/C [3] was 92 % of control. The T/C [4] was 91 % of control and the T/C [5] was 90 % of control.
In the case of CC(=O)c1c(C)cc2cc(O)cc(OC3OC(CO)C(O)C(O)C3O)c2c1O (stereo unspecified), the T/C (dose: 1.5 mg/kg/injection, schedule: Q01DX005 (ip), vehicle: saline + alcohol) is reported as 96 % of control, the T/C (dose: 3.0 mg/kg/injection, schedule: Q01DX005 (ip), vehicle: saline + alcohol) is reported as 103 % of control and the T/C (dose: 6.0 mg/kg/injection, schedule: Q01DX005 (ip), vehicle: saline + alcohol) is reported as 92 % of control. The T/C (dose: 12.0 mg/kg/injection, schedule: Q01DX005 (ip), vehicle: saline + alcohol) was 108 % of control and 94 % of control, the T/C (dose: 24.0 mg/kg/injection, schedule: Q01DX005 (ip), vehicle: saline + alcohol) was 100 % of control and the T/C (dose: 48.0 mg/kg/injection, schedule: Q01DX005 (ip), vehicle: saline + alcohol) was 99 % of control.
CCNCC1c2ccccc2-c2nc3ccccc3nc2-c2ccccc21 was tested, and the T/C [6] was 102 % of control and the T/C (dose: 200.0 mg/kg/injection, schedule: Q04DX002 (ip), vehicle: saline with Tween-80) was 98 % of control.
In the case of O=S(=O)(O)SNCCN1CCOCC1, the T/C (dose: 6.25 mg/kg/injection, schedule: Q01DX009 (ip), vehicle: saline) is reported as 105 % of control, the T/C [7] is reported as 110 % of control and the T/C [8] is reported as 110 % of control.
For CCN(CC)CC.[CH-]1CCCCC1.[CH-]1CCCCC1.[CH3-].[Cl-].[I-].[Sn+4], the T/C (dose: 6.0 mg/kg/injection, schedule: Q01DX005 (ip), vehicle: saline with Tween-80) was 101 % of control and the T/C (dose: 12.0 mg/kg/injection, schedule: Q01DX005 (ip), vehicle: saline with Tween-80) was 102 % of control.
CCC(C)C(NC(=O)C(Cc1ccc(O)cc1)NC(=O)OCc1ccccc1)C(=O)OC (stereo not drawn) (Cbz-Tyr-Ile-OMe; configuration not given here) was tested, and the T/C [9] was 106 % of control, the T/C [10] was 92 % of control and the T/C [11] was 97 % of control.
In the case of O=C1CN(c2cccc(C(F)(F)F)c2)C(=O)CN1/N=C/c1ccc(O)c(O)c1, the T/C [12] is reported as 100 % of control, the T/C [13] is reported as 97 % of control and the T/C [14] is reported as 96 % of control.
With CCCCCC(=O)C1C(c2ccc(C)cc2)CC(=O)C(CCCC)C1c1ccc(C)cc1 (stereo unspecified) the T/C [9] was 93 % of control, the T/C [10] was 93 % of control and the T/C [11] was 93 % of control.
CC(C)C(NC(=O)OCC1c2ccccc2-c2ccccc21)C(=O)O (stereo unspecified) was tested, and the T/C (dose: 50.0 mg/kg/injection, schedule: Q01DX005 (ip), vehicle: Klucel (hydroxypropylcellulose) (HPC)) was 104 % of control, the T/C (dose: 100.0 mg/kg/injection, schedule: Q01DX005 (ip), vehicle: Klucel (hydroxypropylcellulose) (HPC)) was 99 % of control and the T/C (dose: 200.0 mg/kg/injection, schedule: Q01DX005 (ip), vehicle: Klucel (hydroxypropylcellulose) (HPC)) was 98 % of control.
With Nc1ccc(/C=C/c2ccnc3ccccc23)c(N)c1 the T/C (dose: 1.25 mg/kg/injection, schedule: Q01DX001 (ip), vehicle: Klucel (hydroxypropylcellulose) (HPC)) was 107 % of control, the T/C (dose: 2.5 mg/kg/injection, schedule: Q01DX001 (ip), vehicle: Klucel (hydroxypropylcellulose) (HPC)) was 108 % of control and the T/C (dose: 5.0 mg/kg/injection, schedule: Q01DX001 (ip), vehicle: Klucel (hydroxypropylcellulose) (HPC)) was 114 % of control. For the same compound, the T/C (dose: 10.0 mg/kg/injection, schedule: Q01DX001 (ip), vehicle: Klucel (hydroxypropylcellulose) (HPC)) was 107 % of control.
In the case of CCCCOCN(CC(CC)CCCC)CC(CC)CCCC (stereo unspecified), the T/C [9] is reported as 98 % of control, the T/C [10] is reported as 100 % of control and the T/C [11] is reported as 104 % of control.
For COc1cc(-c2ccc(N=Nc3c(O)c(C(=O)Nc4ccccc4OC)cc4ccccc34)c(OC)c2)ccc1N=Nc1c(O)c(C(=O)Nc2ccccc2OC)cc2ccccc12, the T/C [12] was 90 % of control, the T/C [13] was 96 % of control and the T/C [14] was 89 % of control.
With CS1(C)=NC(=O)c2cc([N+](=O)[O-])ccc2N=1 the T/C [2] was 94 % of control, the T/C [4] was 94 % of control and the T/C [15] was 92 % of control.
In the case of COC(=O)Nc1cn2c(n1)SCC2, the T/C [2] is reported as 98 % of control, the T/C [4] is reported as 95 % of control and the T/C [15] is reported as 100 % of control.
For O=C1c2c(O)ccc(O)c2C(=O)c2c(NCCCO)ccc(NCCCO)c21, the T/C (dose: 0.62 mg/kg/injection, schedule: Q01DX009 (ip), vehicle: acid diluted with saline) was 110 % of control, the T/C (dose: 1.25 mg/kg/injection, schedule: Q01DX009 (ip), vehicle: acid diluted with saline) was 103 % of control and the T/C (dose: 2.5 mg/kg/injection, schedule: Q01DX009 (ip), vehicle: acid diluted with saline) was 100 % of control. For the same compound, the T/C (dose: 5.0 mg/kg/injection, schedule: Q01DX009 (ip), vehicle: acid diluted with saline) was 107 % of control, the T/C (dose: 10.0 mg/kg/injection, schedule: Q01DX009 (ip), vehicle: acid diluted with saline) was 98 % of control and the T/C (dose: 20.0 mg/kg/injection, schedule: Q01DX009 (ip), vehicle: acid diluted with saline) was 100 % of control. The T/C (dose: 40.0 mg/kg/injection, schedule: Q01DX009 (ip), vehicle: acid diluted with saline) was 100 % of control and the T/C (dose: 80.0 mg/kg/injection, schedule: Q01DX009 (ip), vehicle: acid diluted with saline) was 91 % of control.
With N#CC1=C(Nc2ccccc2Cl)SC(c2ccncc2)NC1=O (stereo unspecified) the T/C [3] was 111 % of control and the T/C [5] was 105 % of control.
In the case of Cn1c(=O)ccc2c1nc1ccccc1[n+]2[O-], the T/C [2] is reported as 101 % of control and the T/C [4] is reported as 102 % of control.
COc1cccc(CCl)c1 was tested, and the T/C [16] was 110 % of control and 118 % of control and the T/C [17] was 117 % of control and 124 % of control.
For CC(N=Cc1ccccc1O)c1ccccc1.[CH-]=C([CH2-])C(C)(C)C.[Pd+2] (stereo unspecified), the T/C (dose: 6.25 mg/kg/injection, schedule: Q04DX003 (ip), vehicle: Klucel (hydroxypropylcellulose) (HPC)) was 108 % of control, the T/C (dose: 12.5 mg/kg/injection, schedule: Q04DX003 (ip), vehicle: Klucel (hydroxypropylcellulose) (HPC)) was 93 % of control and the T/C (dose: 25.0 mg/kg/injection, schedule: Q04DX003 (ip), vehicle: Klucel (hydroxypropylcellulose) (HPC)) was 92 % of control.
With C/C(=N\O)C1(C)CC=CCC1CO (stereo unspecified) the T/C [16] was 95 % of control, the T/C [17] was 100 % of control and the T/C (dose: 400.0 mg/kg/injection, schedule: Q01DX009 (ip), vehicle: saline with Tween-80) was 100 % of control.
With COc1ncnc(Sc2ncccn2)c1[N+](=O)[O-] the T/C [7] was 103 % of control and 89 % of control, the T/C [8] was 103 % of control and 105 % of control and the T/C (dose: 50.0 mg/kg/injection, schedule: Q01DX009 (ip), vehicle: saline) was 102 % of control and 104 % of control and 90 % of control. The T/C (dose: 100.0 mg/kg/injection, schedule: Q01DX009 (ip), vehicle: saline) was 100 % of control and 123 % of control and 89 % of control and the T/C (dose: 200.0 mg/kg/injection, schedule: Q01DX009 (ip), vehicle: saline) was 109 % of control.
In the case of CC(=O)/C(C(=N)c1nc(C)c(C(=O)c2ccccc2)c(C(N)=O)n1)=C(/O)c1ccccc1, the T/C (dose: 100.0 mg/kg/injection, schedule: Q01DX001 (ip), vehicle: Klucel (hydroxypropylcellulose) (HPC)) is reported as 90 % of control, the T/C (dose: 200.0 mg/kg/injection, schedule: Q01DX001 (ip), vehicle: Klucel (hydroxypropylcellulose) (HPC)) is reported as 88 % of control and the T/C (dose: 400.0 mg/kg/injection, schedule: Q01DX001 (ip), vehicle: Klucel (hydroxypropylcellulose) (HPC)) is reported as 89 % of control.
In the case of O=C1C(C(=Nc2ccc3ccccc3c2)c2ccccc2)=C(O)c2ccccc21, the T/C (dose: 25.0 mg/kg/injection, schedule: Q04DX002 (ip), vehicle: saline with Tween-80) is reported as 100 % of control, the T/C (dose: 50.0 mg/kg/injection, schedule: Q04DX002 (ip), vehicle: saline with Tween-80) is reported as 102 % of control and the T/C [6] is reported as 89 % of control.
In the case of Cc1ccc(S(=O)(=O)N/N=C2/C=CC3(CCCCC3)CC2)cc1, the T/C (dose: 50.0 mg/kg/injection, schedule: Q01DX009 (ip), vehicle: Klucel (hydroxypropylcellulose) (HPC)) is reported as 109 % of control, the T/C (dose: 100.0 mg/kg/injection, schedule: Q01DX009 (ip), vehicle: Klucel (hydroxypropylcellulose) (HPC)) is reported as 102 % of control and the T/C (dose: 200.0 mg/kg/injection, schedule: Q01DX009 (ip), vehicle: Klucel (hydroxypropylcellulose) (HPC)) is reported as 111 % of control.
For CCOC(=O)CCC(=O)Oc1ccc2c(c1OC(=O)CCC(=O)OCC)C(=O)c1ccccc1C2=O, the T/C [1] was 97 % of control, the T/C [3] was 97 % of control and the T/C [5] was 95 % of control.
In the case of CC(C)SCNc1ncnc2c1ncn2C1OC(CO)C(O)C1O (stereo unspecified), the T/C [6] is reported as 98 % of control.
In the case of O=C(O)C(=O)O.[NH-]C1CCCC1[NH-].[Pt+2] (stereo unspecified), the T/C (dose: 12.5 mg/kg/injection, schedule: Q04DX002 (ip), vehicle: saline with Tween-80) is reported as 166 % of control and the T/C (dose: 12.5 mg/kg/injection, schedule: Q04DX002 (ip), vehicle: saline) is reported as 176 % of control.
